Tested on: human skin fibroblasts (WS1)
Test: Cell proliferation of normal cells, crystal violet method
Type: cell-based
Conditions: at the indicated concentrations (not given); FIG. 17
Experimental: The compound according to the invention, and in particular the synthetic quercetin derivatives described and illustrated herein were investigated in vitro by using human tumour cells and assessing their impact on the tumour proliferative capacity, with regard to the tumours described above. In particular, the following human tumour cell lines were assessed experimentally: 1) HCT116, colon adenocarcinoma cells; 2) H1299, lung adenocarcinoma cells; 3) A375, melanoma cells, and 4) A431, squamous skin cell carcinoma; 5) 786-0, renal carcinoma cells; 6) PC3, prostate carcinoma cells; 7) BT549, mammary carcinoma cells; 8) CAL27, tongue carcinoma cells (belonging to the head-and-neck carcinomas); 9) HepG2, hepatocellular carcinoma cells; 10) PANC-1, pancreas carcinoma cells; 11) T24, bladder carcinoma cells; 12) OVCAR-3, ovarian carcinoma cells. In addition, a normal human cell line, WS1 (skin fibroblasts) was also treated with the novel synthetic compounds. Cell proliferation was quantified by the crystal violet method with a spectrophotometer. In short, after acquiring serial images (0, 24 and 48 hrs) with the EVOS XL Cell Imaging System microscope (Thermo Fisher Scientific), the cells imaged at 48 hrs were fixed with paraformaldehyde (4%) and stained with Crystal Violet (1%). Then, the specific absorbance (λ=590 nm) at 48 hrs was measured with a spectrophotometer (Infinite®200 PRO, Tecan). Data analysis was carried out by using ad-hoc Excel files for graphical representation and statistical processing (t-test). […] This tool allows cell growth to be monitored from electrical impedance-derived quantitative values (the so-called Cell Index) measured by tiny electrodes located at the base of the culture wells. Proliferation is monitored for several days (5-7) by setting a Cell Index per minute measure on the instrument. The data are analysed by processing various parameters calculated by the dedicated software, such as the cell duplication time, the slope and the Max Cell Index.

## 2-(3,4-Dihydroxyphenyl)-3-hexyloxy-5,7-dihydroxy-4H-chromen-4-one [Compound 2]
  proliferation of normal human skin fibroblasts (WS1) vs vehicle control: do not disrupt

Source: patent publication US12059400B2, “Medical compound” (VERA SALUS RICERCA S.R.L., priority 2017, dated 2024)
